The record followed here is patent US20030232797A1, “Novel derivatives of androstane and androstene with ascorbic acid and use thereof in treating or preventing various conditions, diseases, and disorders” (priority 2002, published 2003).

Structures are written as SMILES. Structures can show the parent of a compound that is named as a salt.

On to `C[C@]12CC[C@H](OP(=O)(O)OC3=C(O)C(C(O)CO)OC3=O)CC1=CCC1C2CC[C@@]2(C)C1CC[C@@H]2OP(=O)(O)OC1=C(O)C(C(O)CO)OC1=O` (stereo partly drawn) [Diascorbyl diphosphate of androst-5ene-3β,17β-diol, tetrasodium salt], for which the Solubility in ethanol entry (ethanol) is on record as “Slightly soluble”. Moreover, the Solubility in water (water, 50 mg sample, 50 microliter portions every 10 minutes, ultrasonic bath) was 10.6 %, w/w.
